Laboratory results: US20180099931A1 (AbbVie S.à.r.l., priority 2016, published 2018)
Where two headings read alike, the source gives them in different places.

Biological target: T1, F508delCFTR (Homo sapiens, UniProt P13569, DEL508-508)
T1 construct: expressed in transfected cells; host or cells: CFBE41o- human lung-derived epithelial cells (CFBE4lo-F508delCFTR-HRP), doxycycline-inducible
Assay: Cell Surface Expression-Horse Radish Peroxidase (CSE-HRP) Assay;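 for Maximum % activity (with co-corrector): co-corrector and positive control are both the same reference corrector at 2 µM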;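 for Maximum % activity (without co-corrector): percent of the 2 µM on-plate positive control corrector response above DMSO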
Type: cell-based
Conditions: for Emax / Maximum % activity (with co-corrector): maximum at any tested concentration, normalized to on-plate positive control; for Emax: read-out: Maximum % activity (without co-corrector)
Procedure: Cell Surface Expression-Horse Radish Peroxidase (CSE-HRP) Assay;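 for Maximum % activity (with co-corrector): co-corrector and positive control are both the same reference corrector at 2 µM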;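 for Maximum % activity (without co-corrector): percent of the 2 µM on-plate positive control corrector response above DMSO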
The development was achieved by expressing the F508delCFTR mutation along with a horseradish peroxidase (HRP) in the fourth exofacial loop, and then measuring the HRP activity using luminescence readout from these cells, CFBE4lo-F508delCFTR-HRP, that were incubated overnight with the test corrector compounds, either without or with the co-corrector. […] The test compounds were then added either without or with a co-corrector at the required concentrations and further incubated for 18-24 hours at 33° C. The highest concentration tested was 20 μM with an 8-point concentration response curve using a 3-fold dilution in both the test compound without or with the co-corrector. Three replicate plates were run to determine one EC50. All plates contained negative controls (dimethyl sulfoxide, DMSO) and positive control (2 μM of 3-[(2R,4R)-4-({[1-(2,2-difluoro-1,3-benzodioxol-5-yl)cyclopropyl]carbonyl}amino)-7-methoxy-3,4-dihydro-2H-chromen-2-yl]benzoic acid) as well as on-plate concentration response of the positive control. […] The raw counts from the experiment were analyzed using Accelrys® Assay Explorer v3.3.
1−[3*SDPositive Control+3*SDNegative Control/Absolute(MeanPositive Control−MeanNegative Control)]
wherein “SD” is standard deviation.
The % activity measured at each of the 8 test concentrations of the test compound added either without or with a co-corrector (2 μM of 3-[(2R,4R)-4-({[1-(2,2-difluoro-1,3-benzodioxol-5-yl)cyclopropyl]carbonyl}amino)-7-methoxy-3,4-dihydro-2H-chromen-2-yl]benzoic acid) was normalized to the on-plate positive control using the following formulae:
% activity(Test compound without co-corrector)=[(test compound without co-corrector response−DMSO response)/(positive control response−DMSO response)]*100
% activity(Test compound with co-corrector)=[(test compound with co-corrector response−DMSO response)/(positive control response−DMSO response)]*100
The maximum % activity achieved for the test compound either without or with a co-corrector at any tested concentration is presented in Table 4 along with the respective EC50's calculated using the following general sigmoidal curve with variable Hill slope equation (described as Model 42 in the Accelrys® Assay Explorer v3.3 software):
General sigmoidal curve with concentration, response, top, bottom, EC50 and Hill slope. This model describes a sigmoidal curve with an adjustable baseline, a. The equation can be used to fit curves where response is either increasing or decreasing with respect to the independent variable, “x”.
“x” is a concentration of drug under test. “y” is the response. “a” is the maximum response, and “d” is the minimum response “c” is the inflection point (EC50) for the curve. That is, “y” is halfway between the lower and upper asymptotes when x=c. “b” is the slope-factor or Hill coefficient. The sign of b is positive when the response increases with increasing dose and is negative when the response decreases with increasing dose (inhibition).

[1] = test compound without co-corrector
[2] = test compound without co-corrector, read-out: EC50 (without co-corrector)
[3] = with co-corrector (2 μM of 3-[(2R,4R)-4-({[1-(2,2-difluoro-1,3-benzodioxol-5-yl)cyclopropyl]carbonyl}amino)-7-methoxy-3,4-dihydro-2H-chromen-2-yl]benzoic acid)
[4] = with co-corrector (2 μM of 3-[(2R,4R)-4-({[1-(2,2-difluoro-1,3-benzodioxol-5-yl)cyclopropyl]carbonyl}amino)-7-methoxy-3,4-dihydro-2H-chromen-2-yl]benzoic acid), read-out: EC50 (with co-corrector)
[5] = CSE-HRP, test compound without co-corrector, read-out: EC50 (without co-corrector)
[6] = CSE-HRP, with co-corrector (2 μM of 3-[(2R,4R)-4-({[1-(2,2-difluoro-1,3-benzodioxol-5-yl)cyclopropyl]carbonyl}amino)-7-methoxy-3,4-dihydro-2H-chromen-2-yl]benzoic acid), read-out: EC50 (with co-corrector)
[7] = CSE-HRP, with co-corrector (2 μM)

T1 sequence (P13569 with tags, fused parts or gaps DEL508-508): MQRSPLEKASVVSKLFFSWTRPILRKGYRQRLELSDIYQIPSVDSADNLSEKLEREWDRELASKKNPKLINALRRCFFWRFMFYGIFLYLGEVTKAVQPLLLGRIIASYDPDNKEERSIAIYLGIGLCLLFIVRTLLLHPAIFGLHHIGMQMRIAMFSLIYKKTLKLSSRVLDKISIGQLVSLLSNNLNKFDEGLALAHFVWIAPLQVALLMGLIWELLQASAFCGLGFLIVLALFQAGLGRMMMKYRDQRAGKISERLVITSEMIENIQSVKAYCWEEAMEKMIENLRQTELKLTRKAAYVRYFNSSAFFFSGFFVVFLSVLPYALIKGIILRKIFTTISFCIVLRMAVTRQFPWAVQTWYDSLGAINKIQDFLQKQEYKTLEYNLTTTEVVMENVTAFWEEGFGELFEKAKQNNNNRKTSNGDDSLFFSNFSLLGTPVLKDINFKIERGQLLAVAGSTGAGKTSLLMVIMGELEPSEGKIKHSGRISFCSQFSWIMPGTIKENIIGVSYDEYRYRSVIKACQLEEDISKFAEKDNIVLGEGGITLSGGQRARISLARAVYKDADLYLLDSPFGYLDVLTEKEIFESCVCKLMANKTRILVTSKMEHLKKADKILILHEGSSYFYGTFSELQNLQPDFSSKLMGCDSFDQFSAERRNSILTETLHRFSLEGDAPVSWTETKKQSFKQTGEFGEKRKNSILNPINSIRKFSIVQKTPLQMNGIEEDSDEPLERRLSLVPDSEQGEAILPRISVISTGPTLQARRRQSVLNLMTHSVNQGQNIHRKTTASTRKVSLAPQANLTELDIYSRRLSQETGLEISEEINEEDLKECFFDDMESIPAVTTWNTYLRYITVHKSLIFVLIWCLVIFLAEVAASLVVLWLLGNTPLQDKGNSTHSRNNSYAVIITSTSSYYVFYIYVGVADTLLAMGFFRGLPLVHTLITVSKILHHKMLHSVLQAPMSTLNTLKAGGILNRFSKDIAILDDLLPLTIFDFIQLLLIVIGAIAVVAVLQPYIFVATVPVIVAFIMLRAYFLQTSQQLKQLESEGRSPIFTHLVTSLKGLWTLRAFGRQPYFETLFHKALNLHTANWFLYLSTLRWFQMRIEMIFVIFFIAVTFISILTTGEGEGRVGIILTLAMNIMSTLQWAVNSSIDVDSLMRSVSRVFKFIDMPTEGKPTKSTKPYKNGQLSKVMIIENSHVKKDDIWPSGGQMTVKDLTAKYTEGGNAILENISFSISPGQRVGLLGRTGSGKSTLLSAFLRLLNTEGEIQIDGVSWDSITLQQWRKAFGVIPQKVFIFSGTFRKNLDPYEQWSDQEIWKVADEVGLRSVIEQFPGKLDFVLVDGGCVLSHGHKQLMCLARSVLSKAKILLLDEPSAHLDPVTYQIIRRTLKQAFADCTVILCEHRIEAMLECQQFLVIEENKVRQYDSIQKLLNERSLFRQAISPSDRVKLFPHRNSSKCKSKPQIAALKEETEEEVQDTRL

Compound | Emax [1] [%] | EC50 [2] [nM] | Maximum % activity (with co-corrector) [3] | EC50 [4] [nM] | EC50 [5] [nM] | EC50 [6] [nM] | Maximum % activity (with co-corrector) [7] | Emax (CSE-HRP, without co-corrector) [%] | Maximum % activity (with co-corrector) (with co-corrector (2 μM)) | Emax (without co-corrector) [%]
COc1cc2c(cc1CN[C@H]1[C@H](C(C)(C)C)[C@@H](C(=O)O)N(C(=O)C3CCCCC3)[C@H]1c1ccccc1)CCC2 [Example I-49] |  | 1000 to 10000 |  | < 1000 |  |  |  |  | +++ (≥350) | > 200
COc1ncc(C(F)(F)F)cc1CN[C@H]1[C@H](C(C)(C)C)[C@@H](C(=O)O)N(C(=O)[C@@H]2CCCCO2)[C@H]1c1cccc2c1OCC2 [Example I-298] |  |  |  |  | 1000 to 10000 | 1000 to 10000 | +++ (≥350) | 100 to 200 |  | 
COc1ncc(C(F)(F)F)cc1CN[C@H]1[C@H](C(C)(C)C)[C@@H](C(=O)O)N(C(=O)C2CCCC2)[C@H]1c1ccccc1C(C)C [Example 98, (2S,3S,4S,5S)-3-tert-butyl-1-(cyclopentanecarbonyl)-4-({[2-methoxy-5-(trifluoromethyl)pyridin-3-yl]methyl}amino)-5-[2-(propan-2-yl)phenyl]pyrrolidine-2-carboxylic acid] |  | < 1000 |  | < 1000 |  |  |  |  | +++ (≥350) | > 200
COc1cc(C(F)(F)F)ccc1CN[C@@H]1[C@@H](C(C)(C)C)[C@H](C(=O)O)N(C(=O)C2CCCCO2)[C@@H]1c1ccccc1N(C)C (mixture of isomers) [Example I-25] |  | 1000 to 10000 |  | < 1000 |  |  |  |  | +++ (≥350) | > 200
COc1nc(C(C)(C)C)ccc1CN[C@H]1[C@H](C(C)(C)C)[C@@H](C(=O)O)N(C(=O)[C@@H]2CCCCO2)[C@H]1c1ccccc1F [Example I-231] |  | 1000 to 10000 |  | 1000 to 10000 |  |  |  |  | +++ (≥350) | 100 to 200
COc1ccc(C2(C)CCC2)cc1CN[C@H]1[C@H](C(C)(C)C)[C@@H](C(=O)O)N(C(=O)[C@@H]2CCCO2)[C@H]1c1cccnc1N(C)C [Example I-283] |  |  |  |  | 1000 to 10000 | 1000 to 10000 | +++ (≥350) | > 200 |  | 
COc1ncc(C(C)(C)C)cc1N[C@H]1[C@H](C(C)(C)C)[C@@H](C(=O)O)N(C(=O)C2CCCCC2)[C@H]1c1ccccc1 [Example 55, (2S,3S,4S,5S)-3-tert-butyl-4-[(5-tert-butyl-2-methoxypyridin-3-yl)amino]-1-(cyclohexanecarbonyl)-5-phenylpyrrolidine-2-carboxylic acid] |  | 1000 to 10000 |  | 1000 to 10000 |  |  |  |  | ++ (≥150 and <350) | < 100
COc1ncc(C(F)(F)F)cc1CN[C@H]1[C@H](C(C)(C)C)[C@@H](C(=O)O)N(C(=O)[C@H]2C[C@@H]3CC[C@H]2O3)[C@H]1c1ccccc1C(C)C (relative stereo) [Example I-270] |  |  |  |  | < 1000 | < 1000 | +++ (≥350) | > 200 |  | 

Next, values leading:

Emax [1] [%] | EC50 [2] [nM] | Maximum % activity (with co-corrector) [3] | EC50 [4] [nM] | EC50 [5] [nM] | EC50 [6] [nM] | Maximum % activity (with co-corrector) [7] | Emax (CSE-HRP, without co-corrector) [%] | Maximum % activity (with co-corrector) (with co-corrector (2 μM)) | Emax (without co-corrector) [%] | Compound
< 100 | 1000 to 10000 | ++ (≥150 and <350) | 1000 to 10000 |  |  |  |  |  |  | COc1ncc(C(F)(F)F)cc1CN[C@H]1[C@H](C(C)(C)C)[C@@H](C(=O)O)N(C(=O)C2CCc3ccc(F)cc3O2)[C@H]1c1ccccc1 (stereo partly drawn) [II-435]
 |  |  |  | 1000 to 10000 | 1000 to 10000 | +++ (≥350) | > 200 |  |  | COc1ccc(C(C)(C)C)cc1CN[C@H]1[C@H](C(C)(C)C)[C@@H](C(=O)O)N(C(=O)CC2CCC(F)(F)CC2)[C@H]1c1ccccc1 [II-188]
100 to 200 | 1000 to 10000 | +++ (≥350) | 1000 to 10000 |  |  |  |  |  |  | COc1ccc(C(C)(C)C)cc1CN[C@H]1[C@H](C(C)(C)C)[C@@H](C(=O)O)N(C(=O)[C@H]2CCCO2)[C@H]1c1ccccc1 [II-322]
> 200 | 1000 to 10000 | +++ (≥350) | < 1000 |  |  |  |  |  |  | COc1ncc(C(F)(F)F)cc1CN[C@H]1[C@H](C(C)(C)C)[C@@H](C(=O)O)N(C(=O)C2CCOCC2)[C@H]1c1ccccc1C(C)C [II-591]
 |  |  |  | 1000 to 10000 | 1000 to 10000 | +++ (≥350) | 100 to 200 |  |  | COc1ccc(-c2cncc(F)c2)cc1CN[C@H]1[C@H](C(C)(C)C)[C@@H](C(=O)O)N(C(=O)C2CCCCC2)[C@H]1c1ccccc1 [II-287]
 |  |  |  | 1000 to 10000 | 1000 to 10000 | ++ (≥150 and <350) | < 100 |  |  | COc1ccc(-c2cnn(C3CCC3)c2)cc1CN[C@H]1[C@H](C(C)(C)C)[C@@H](C(=O)O)N(C(=O)C2CCCCC2)[C@H]1c1ccccc1 [II-290]
< 100 | 1000 to 10000 | +++ (≥350) | 1000 to 10000 |  |  |  |  |  |  | CC(C)(C)[C@@H]1[C@@H](Nc2cc(C(F)(F)F)ccn2)[C@@H](c2ccccc2)N(C(=O)C2CCCCC2)[C@H]1C(=O)O (racemic) [III-4]
 |  |  |  | 1000 to 10000 | 1000 to 10000 | +++ (≥350) | > 200 |  |  | COc1ncc(C(C)C)cc1CN[C@H]1[C@H](C(C)(C)OC)[C@@H](C(=O)O)N(C(=O)C2CCCCC2)[C@H]1c1ccccc1 [II-254]
< 100 | 1000 to 10000 | +++ (≥350) | 1000 to 10000 |  |  |  |  |  |  | COc1ccc(C(C)(C)C)cc1CN[C@H]1[C@H](C(C)(C)C)[C@@H](C(=O)O)N(C(=O)C2Cc3ccccc3CO2)[C@H]1c1cccnc1N(C)C (single isomer, unassigned) [II-480]
< 100 | > 10000 | + (<150) | > 10000 |  |  |  |  |  |  | COc1cccc(CN[C@@H]2[C@@H](C(C)(C)C)[C@H](C(=O)O)N(C(=O)C3CCCCC3)[C@@H]2c2ccccc2)c1OC (racemic) [III-13]
100 to 200 | 1000 to 10000 | +++ (≥350) | 1000 to 10000 |  |  |  |  |  |  | COc1ncc(C2CCC2)cc1CN[C@H]1[C@H](C(C)(C)C)[C@@H](C(=O)O)N(C(=O)C2C3CCCC32)[C@H]1c1cccnc1N(C)C (stereo partly drawn) [II-518]
 |  |  |  | 1000 to 10000 | 1000 to 10000 | +++ (≥350) | > 200 |  |  | COc1ccc(C(F)(F)F)cc1CN[C@@H]1[C@@H](C(C)(C)C)[C@H](C(=O)O)N(C(=O)C2CCCOC2)[C@@H]1c1ccccc1N(C)C (mixture of isomers) [II-21]
 |  |  |  | 1000 to 10000 | 1000 to 10000 | +++ (≥350) | 100 to 200 |  |  | COc1ccc(C(C)(C)C)cc1CN[C@H]1[C@H](C(C)(C)C)[C@@H](C(=O)O)N(C(=O)CN2CCOCC2)[C@H]1c1ccccc1 [II-209]
100 to 200 | < 1000 | +++ (≥350) | < 1000 |  |  |  |  |  |  | COc1ncc(C2(C)CC2(F)F)cc1CN[C@H]1[C@H](C(C)(C)C)[C@@H](C(=O)O)N(C(=O)C2CCCCC2)[C@H]1c1ccccc1 (stereo partly drawn) [II-422]
< 100 | 1000 to 10000 | ++ (≥150 and <350) | 1000 to 10000 |  |  |  |  |  |  | COc1cc(Cl)ccc1CN[C@@H]1[C@@H](C(C)(C)C)[C@H](C(=O)O)N(C(=O)C2CCCCC2)[C@@H]1c1ccccn1 (racemic) [III-82]
100 to 200 | 1000 to 10000 |  | < 1000 |  |  |  |  | +++ (≥350) |  | COc1cc2c(cc1CN[C@H]1[C@H](C(C)(C)C)[C@@H](C(=O)O)N(C(=O)OC(C)C)[C@H]1c1ccccc1)C(C)(C)CCC2(C)C [III-227]
